Where a name gives a salt, the structure may show the parent alone.
Experiments:
Type in all cases: biochemical
Termamyl = molecular target: T1, Termamyl (Bacillus licheniformis, UniProt P06278); experiment: Organic Catalyst/Enzyme Compatibility Test (alpha amylase activity assay), Termamyl; details: (Ac/Ab)×100; [Peracetic Acid]=5.0 ppm; [organic catalyst]=0.5 ppm; 40° C.; detergent solution
T1 construct: purchased Novozymes, Denmark
Description: (§1) Organic Catalyst/Enzyme Compatibility Test
(§2) The test described below uses an alpha amylase activity assay to measure the impact of organic catalysts on the enzyme.
(§3) Equipment. UV/V is spectrophotometer capable of measuring @ 415 nm, heated magnetic stirrer capable of 40° C., 5 mL Luer lock syringe and filters (Acrodisc 0.45 μm), pH meter, and balance (4-place analytical).
(§4) Reagents. […]
(§5) • a.) TRIS Assay Buffer. […] Mix 6 μL of filtered sample with 250 μL of amylase reagent in a cuvette and place the cuvette in a UV/VIS spectrophotometer and monitor change in absorbance at 415 nm. Determine length of time (tE) to the nearest second required to obtain an absorbance reading of 1.0 for each enzyme. […] Once sample and reagent are mixed, record the absorbance at tE for the respective enzyme. Designate such absorbance Ab. • c.) Analysis of sample with enzyme, peracetic acid, and organic catalyst. […] Once sample and reagent are mixed, record the absorbance at tE for the respective enzyme. Designate such absorbance Ac. […] The ECV for any specific enzyme is (Ac/Ab)×100 where Ab and Ac are the values determined in Steps 2.)b.) and 2.)c.), respectively, for that enzyme. • b.) The ECV for a given organic catalyst is the average of the individual ECV values for the three enzymes. […]

Duramyl = experiment: Organic Catalyst/Enzyme Compatibility Test (alpha amylase activity assay), Duramyl; details: (Ac/Ab)×100; [Peracetic Acid]=5.0 ppm; [organic catalyst]=0.5 ppm; 40° C.; detergent solution
Description: as §1, §2, §3, §4, §5

Natalase = experiment: Organic Catalyst/Enzyme Compatibility Test (alpha amylase activity assay), Natalase; details: (Ac/Ab)×100; [Peracetic Acid]=5.0 ppm; [organic catalyst]=0.5 ppm; 40° C.; detergent solution
Description: as §1, §2, §3, §4, §5

[1] = test system: Termamyl, Natalase, and Duramyl; experiment: Organic Catalyst/Enzyme Compatibility Test, average of the three amylases; details: ECV=(ECVter+ECVdur+ECVnat)/3; [Peracetic Acid]=5.0 ppm; [organic catalyst]=0.5 ppm
Description: as §1, §2, §3, §4, §5

T1 sequence (P06278 30-512): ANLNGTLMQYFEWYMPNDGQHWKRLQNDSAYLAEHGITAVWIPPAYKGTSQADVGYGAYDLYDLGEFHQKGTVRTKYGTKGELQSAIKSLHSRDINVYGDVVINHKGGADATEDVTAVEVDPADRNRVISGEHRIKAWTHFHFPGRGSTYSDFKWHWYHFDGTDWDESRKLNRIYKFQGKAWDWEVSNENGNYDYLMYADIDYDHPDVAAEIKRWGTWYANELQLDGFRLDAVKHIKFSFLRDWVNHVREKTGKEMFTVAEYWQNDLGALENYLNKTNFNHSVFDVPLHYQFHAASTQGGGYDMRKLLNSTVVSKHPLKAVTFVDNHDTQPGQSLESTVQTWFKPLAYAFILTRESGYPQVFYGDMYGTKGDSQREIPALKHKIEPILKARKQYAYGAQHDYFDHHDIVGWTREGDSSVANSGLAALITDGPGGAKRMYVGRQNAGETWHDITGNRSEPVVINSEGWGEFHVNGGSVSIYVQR

SMILES: CC(C)(C)OCC(C[N+]1=Cc2ccccc2CC1)OS(=O)(=O)[O-] (stereo not shown) [Entry 1, Sulfuric acid mono-[2-(3,4-dihydro-isoquinolin-2-yl)-1-((1,1-dimethylethoxy)methyl)ethyl] ester, internal salt]
- Enzyme Compatibility Values ECVter (Termamyl): 51
- Enzyme Compatibility Values ECVdur (Duramyl): 86
- Enzyme Compatibility Values ECVnat (Natalase): 58
- Enzyme Compatibility Values ECV [1]: 65

Reference: patent publication US7504371B2, “Organic catalyst with enhanced enzyme compatibility” (The Procter & Gamble Company, priority 2005, dated 2009)
